Laboratory results: the PolyMetriX glass transition set
± gives the standard deviation of the reports.

Compound | glass transition temperature [°C]
*OC(=O)C(NC(=O)CCCCCCCCC(=O)NC(C(=O)OC1COC2C(*)COC12)C(C)CC)C(C)CC (repeat unit) | 91.00
*CC(*)(C)C(=O)OCCCCCCCCCCOc1ccc(/N=N/c2ccc(Cl)cc2)cc1 (repeat unit) | 54.00
*c1ccc(Cc2ccc(-n3nccc3-c3ccc(-c4ccnn4*)cc3)cc2)cc1 (repeat unit) | 202.00
*CC(*)c1cc(C(=O)OCCCCCCCC)ccc1-c1ccc(OCCCCCCCC)cc1 (repeat unit) | 57.00
*CCCCCOC(=O)c1ccc(-c2ccc(C(=O)O*)cc2)cc1 (repeat unit) | 47.50
*c1ccc([Si](*)(C)C)s1 (repeat unit) | 21.00
*CCCCNC(=O)c1ccc(C(=O)N*)c(Oc2ccccc2)c1 (repeat unit) | 125.00
*CCCCCCCCCCC(=O)Oc1ccc2cc(OC(=O)CCCCCCCCCCn3c(=O)c4cc5c(=O)n(*)c(=O)c5cc4c3=O)ccc2c1 (repeat unit) | 66.00
*CCOCCOCCOCCOc1ccc(/C=C(\C)c2ccc(O*)cc2)cc1 (repeat unit) | 7.50
*/C=C/c1ccc2c(c1)C(CC(CC)CCCC)(CC(CC)CCCC)c1cc(*)ccc1-2 (repeat unit) | 165.00
*C(=O)NCCN(CCNC(=O)c1ccc2c(c1)C(=O)N(c1ccc(Oc3ccc(N4C(=O)c5ccc(*)cc5C4=O)cc3)cc1)C2=O)c1ccc(/C=C/c2ccc([N+](=O)[O-])cc2)cc1 (repeat unit) | 224.00
*C(=O)c1ccc2c(c1)C(=O)N(c1cccc(Nc3ncnc(Nc4cccc(N5C(=O)c6ccc(*)cc6C5=O)c4)n3)c1)C2=O (repeat unit) | 290.00
*c1ccc(-c2c(-c3ccccc3)nc3ccc(-c4ccc5nc(-c6ccccc6)c(*)c(-c6ccccc6)c5c4)cc3c2-c2ccccc2)cc1 (repeat unit) | 370.00
*c1cc(-c2nc3ccccc3oc2=O)cc(-n2c(=O)c3cc4c(=O)n(*)c(=O)c4cc3c2=O)c1 (repeat unit) | 130.00
*c1cc(-c2sc(-c3cc(CCCCCCC)c(*)s3)cc2CCCCCCC)c2cccccc1-2 (repeat unit) | 56.00
*OC(*)CCC (repeat unit) | -41.00
*Oc1ccc(CC(NC(=O)CCc2ccc(OC(=O)CCCC(*)=O)cc2)C(=O)OC)cc1 (repeat unit) | 76.00
*Oc1ccc(S(=O)(=O)c2ccc(Oc3c(C)cc(C(C)(C)c4cc(C)c(*)c(C)c4Br)c(Br)c3C)cc2)cc1 (repeat unit) | 275.40
*Oc1ccc(/C=C2\CCC/C(=C\c3ccc(OC(=O)CCCCCCCCC(*)=O)c(OC)c3)C2=O)cc1OC (repeat unit) | 48.1
*CCCCCCCCCCNC(=O)c1ccc(C(=O)N*)c(Oc2ccccc2)c1 (repeat unit) | 94.00
*CC(C)(C)C1C(=O)N(C2CCCCC2)C(=O)C1* (repeat unit) | 192.00
*Nc1ccc(NC(=O)c2cc(-c3ccc(C(=O)O)c(C(*)=O)c3)ccc2C(=O)O)cc1 (repeat unit) | 248.40
*CCCCCCCCCCOc1ccc(/C=C/c2ccc(OCCCCCCCCCCOP(=O)(O*)OCCCCCCCCCCOc3ccc(/N=N/c4ccc(C#N)cc4)cc3)cc2)cc1 (repeat unit) | 60.00
*c1ccc(Sc2ccc(Sc3ccc(Sc4ccc(Sc5ccc(N6C(=O)c7ccc(Oc8ccc9c(c8)C(=O)N(*)C9=O)cc7C6=O)cc5)s4)s3)s2)cc1 (repeat unit) | 158.50

Compound | glass transition temperature [°C]
*C(=O)c1ccc2c(c1)C(=O)N(c1ccc(Cc3ccc(C(=O)c4ccc(N5C(=O)c6ccc(*)cc6C5=O)cc4)cc3)cc1)C2=O (repeat unit) | 307.00
*c1ccc(-c2ccc(-c3ccc(-c4ccc(*)n4CCCCCCCCCCCC)s3)s2)s1 (repeat unit) | 52.00
*c1ccc([Si](c2ccccc2)(c2ccccc2)c2ccc(-c3nnc(-c4cncc(-c5nnc(*)o5)c4)o3)cc2)cc1 (repeat unit) | 272.00
*Oc1ccc(CC(NC(=O)Cc2ccc(OC(=O)COCC(*)=O)cc2)C(=O)OCC)cc1 (repeat unit) | 66.00
*c1ccc2c(c1)C(=O)N(c1ccc(Oc3ccc(N4C(=O)c5ccc(C(F)(F)C(F)(F)C(F)(F)C(F)(F)C(F)(F)C(F)(F)C(*)(F)F)cc5C4=O)cc3)cc1)C2=O (repeat unit) | 178.00
*C1CCOC1* (repeat unit) | 131.00
*C(=O)c1ccc2c(c1)C(=O)N(c1ccc(-c3ccc(N4C(=O)c5ccc(*)cc5C4=O)cc3)cc1)C2=O (repeat unit) | 382.00
*CC(*)c1ccc(COc2ccc(-c3ccc(-c4ccc(C)cc4)c4nsnc34)cc2)cc1 (repeat unit) | 117.00
*/C(Cl)=C(/*)CCCC (repeat unit) | 190.00
*[Si](*)(C)CCC(F)(F)F (repeat unit) | -3.00
*Nc1ccc(NC(=O)Cc2cc(CC(*)=O)c(C)cc2C)cc1 (repeat unit) | 208.00
*CC* (repeat unit) [Poly(ethylene)] | -54.00 ± 89
*c1ccc(Oc2ccc(C(=O)c3cccc(C(=O)c4ccc(Oc5ccc(N6C(=O)c7ccc(Oc8ccc9c(c8)C(=O)N(*)C9=O)cc7C6=O)cc5C(F)(F)F)cc4)n3)cc2)c(C(F)(F)F)c1 (repeat unit) | 212.20
*Oc1ccc(C(CC)c2ccc(OC(*)=O)cc2)cc1 (repeat unit) | 128.00
*Oc1cc(Oc2ccc(C(C)(C)c3ccc(*)cc3)cc2)cc(C(=O)Oc2ccc(/N=N/c3ccc(C#N)cc3)cc2)c1 (repeat unit) | 163.00
*C(=O)c1ccc2c(c1)/C(=N\c1ccc(Oc3ccc(C(c4ccc(Oc5ccc(/N=C6/OC(=O)c7ccc(*)cc76)cc5)cc4)(C(F)(F)F)C(F)(F)F)cc3)cc1)OC2=O (repeat unit) | 248.00
*Oc1ccc(CC(*)=O)cc1 (repeat unit) | 117.00
*c1ccc(Sc2ccc(Sc3ccc(Sc4ccc(S(*)=O)cc4)cc3)cc2)cc1 (repeat unit) | 133.00
*c1ccc(C(c2ccc(N3C(=O)c4ccc(OCCN(CCOc5ccc6c(c5)C(=O)N(*)C6=O)c5ccc(/C=C/c6ccc([N+](=O)[O-])cc6)cc5)cc4C3=O)cc2)(C(F)(F)F)C(F)(F)F)cc1 (repeat unit) | 180.70
*c1cccc(S(=O)(=O)NCCCCCCNS(*)(=O)=O)c1 (repeat unit) | 67.00
*CCOCCOCCOCCOC(=O)c1ccc(-c2ccc(C(=O)O*)cc2)cc1 (repeat unit) | 4.00
*c1cccc(Oc2cccc(Oc3cccc(-n4c(=O)c5cc6c(=O)n(*)c(=O)c6cc5c4=O)c3)c2)c1 (repeat unit) | 221.00
*C(=O)Oc1ccc(OC(=O)c2ccc3c(c2)C(=O)N(c2ccc(Oc4ccc(N5C(=O)c6ccc(*)cc6C5=O)cc4)cc2)C3=O)c(-c2ccccc2)c1 (repeat unit) | 212.00
